The values that follow come from ChEMBL document CHEMBL1157947, “Antineoplastic Agents. 554. The manitoba bacterium Streptomyces sp” (2006).

The GI50 is the concentration at which growth is held to half of that of the control. By MIC is commonly meant the lowest concentration that inhibits growth of the organism.

SMILES strings stand for the structures. In brackets after ≈: the same amount, converted by molar mass.

Type in all cases: functional
Assay [1] relates to BXPC-3. In words: Growth inhibition of human BXPC3 cells.
Assay [2] has as its system DU-145. Put plainly: Growth inhibition of human DU145 cells.
For assay [3], the system named is MCF7. In words: Growth inhibition of human MCF7 cells.
Assay [4] has as its system SF-268. Put plainly: Growth inhibition of human SF268 cells.
In assay [5] the test system is P388. In words: Growth inhibition of mouse P388 cells.
For assay [6], the system named is NCI-H460. In words: Growth inhibition of human NCI-H460 cells.
Assay [7] has as its system KM-20L2. In words: Growth inhibition of human KM20L2 cells.
Assay [8] deals with Neisseria gonorrhoeae. Put plainly: Antibacterial activity against Neisseria gonorrhoeae ATCC 49226 by broth microdilution method. A general note: Dilution methods test growth across graded concentrations, often in twofold steps.
The test system of assay [9] is Escherichia coli. In words: Antibacterial activity against sEscherichia coli by broth microdilution method.
In assay [10] the test system is Candida albicans. In words: Antifungal activity against Candida albicans by broth microdilution method.
Assay [11] deals with Enterobacter cloacae. Put plainly: Antibacterial activity against sEnterobacter cloacae by broth microdilution method.
Assay [12] deals with Streptococcus pneumoniae. Put plainly: Antibacterial activity against Streptococcus pneumoniae ATCC 6303 by broth microdilution method.
For assay [13], the system named is Stenotrophomonas maltophilia. In words: Antibacterial activity against Stenotrophomonas maltophilia by broth microdilution method.
Assay [14] concerns Staphylococcus aureus. Put plainly: Antibacterial activity against Staphylococcus aureus by broth microdilution method.
The subject of assay [15] is Enterococcus faecalis. In words: Antibacterial activity against sEnterococcus faecalis by broth microdilution method.
The test system of assay [16] is Micrococcus luteus. Put plainly: Antibacterial activity against Micrococcus luteus by broth microdilution method.
For assay [17], the system named is Cryptococcus neoformans. Put plainly: […] activity against Cryptococcus neoformans by broth microdilution method.

On to `O=C(CO)c1c[nH]c2ccccc12`, for which the GI50 in assay [1] was 0.31 µg/mL (≈ 1.77 µM); in assay [2] it was 0.21 µg/mL (≈ 1.2 µM); in [3] it was 0.82 µg/mL (≈ 4.68 µM); in [4] it was 1.8 µg/mL (≈ 10.3 µM); in [5], 2.8 µg/mL (≈ 16 µM); in assay [6], 0.17 µg/mL (≈ 0.97 µM). Also, it took 1.2 µg/mL (≈ 6.85 µM) to inhibit growth in assay [7] by half (GI50).

Turning to `Cc1cc(=O)n(C)c2c1C(=O)c1c(C)cc(=O)n(C)c1C2=O` [DIAZAANTHRAQUINONE], the GI50 is 0.54 µg/mL (≈ 1.81 µM) in [1]; 1 µg/mL (≈ 3.35 µM) in assay [2]; 0.49 µg/mL (≈ 1.64 µM) in assay [3]; 1.3 µg/mL (≈ 4.36 µM) in assay [4]; 1.4 µg/mL (≈ 4.69 µM) in [5]; 1.2 µg/mL (≈ 4.02 µM) in assay [6]. Also, the GI50 in [7] was 0.32 µg/mL (≈ 1.07 µM). The MIC in assay [8] was 4 µg/mL (≈ 13.4 µM); in [9] it was > 64 µg/mL; in [10], > 64 µg/mL; in assay [11], > 64 µg/mL; in assay [12], 16 µg/mL (≈ 53.6 µM); in assay [13] it was > 64 µg/mL. Further, the MIC in [14], in assay [15], in assay [16] and in [17] was > 64 µg/mL throughout.
